Reference: patent US20230141603A1, “BENZODIAZEPINE DERIVATIVES AS GABA A GAMMA1 PAM” (Hoffmann-La Roche Inc., priority 2021, published 2023)

Each molecule was assayed against T1, h-GABAA α2β2γ1 (Homo sapiens, UniProt P47869+Q8N1C3) (assay: Radioligand binding assay, [3H]RO7239181 competition, HEK293F membranes).
T1 sequence (P47869 29-451): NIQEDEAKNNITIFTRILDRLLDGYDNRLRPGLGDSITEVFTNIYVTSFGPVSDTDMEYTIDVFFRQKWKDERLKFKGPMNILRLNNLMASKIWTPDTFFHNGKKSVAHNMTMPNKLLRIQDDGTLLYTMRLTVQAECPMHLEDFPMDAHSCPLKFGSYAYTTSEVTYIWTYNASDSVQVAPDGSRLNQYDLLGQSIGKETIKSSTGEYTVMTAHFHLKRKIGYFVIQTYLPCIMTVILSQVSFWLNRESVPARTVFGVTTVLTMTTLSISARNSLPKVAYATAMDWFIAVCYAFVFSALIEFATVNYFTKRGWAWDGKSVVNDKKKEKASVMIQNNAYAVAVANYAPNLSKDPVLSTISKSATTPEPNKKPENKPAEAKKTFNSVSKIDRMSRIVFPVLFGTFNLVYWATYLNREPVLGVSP
T1 sequence (P47870 25-512 partner limits assumed): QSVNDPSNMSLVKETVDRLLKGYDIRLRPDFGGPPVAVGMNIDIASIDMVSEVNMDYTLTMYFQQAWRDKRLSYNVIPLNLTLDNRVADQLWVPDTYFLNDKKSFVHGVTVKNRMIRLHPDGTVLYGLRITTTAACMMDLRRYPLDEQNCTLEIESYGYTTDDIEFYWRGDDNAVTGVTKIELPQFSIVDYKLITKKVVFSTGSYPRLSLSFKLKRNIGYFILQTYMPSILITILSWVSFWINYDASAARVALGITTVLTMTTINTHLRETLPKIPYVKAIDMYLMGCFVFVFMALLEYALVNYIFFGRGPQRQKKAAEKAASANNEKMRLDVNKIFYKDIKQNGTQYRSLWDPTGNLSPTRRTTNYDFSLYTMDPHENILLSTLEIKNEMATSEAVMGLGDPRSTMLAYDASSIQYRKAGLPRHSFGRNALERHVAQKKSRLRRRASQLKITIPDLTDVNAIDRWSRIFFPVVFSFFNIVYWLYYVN
T1 sequence (Q8N1C3 36-465): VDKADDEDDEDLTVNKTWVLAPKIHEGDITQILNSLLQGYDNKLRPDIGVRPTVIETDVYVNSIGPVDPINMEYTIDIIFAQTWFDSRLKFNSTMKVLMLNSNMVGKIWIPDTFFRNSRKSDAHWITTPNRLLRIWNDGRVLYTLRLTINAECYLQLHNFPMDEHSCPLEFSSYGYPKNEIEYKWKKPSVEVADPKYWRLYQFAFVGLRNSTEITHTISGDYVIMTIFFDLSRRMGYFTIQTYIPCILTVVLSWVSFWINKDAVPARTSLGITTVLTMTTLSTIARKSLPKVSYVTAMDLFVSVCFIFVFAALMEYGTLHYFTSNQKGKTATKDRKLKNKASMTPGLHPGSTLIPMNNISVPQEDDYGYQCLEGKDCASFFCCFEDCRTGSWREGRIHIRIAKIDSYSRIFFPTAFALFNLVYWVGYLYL
Design: signal peptide of human GABAA α5 subunit (Met1 to Ser31), replacing the α2 signal peptide (N); expressed in transfected cells; host or cells: HEK293F cells (ThermoFisher R79007), membranes
Experimental: The affinity of compounds at GABAA γ1 subunit-containing receptors was measured by competition for [^3H]RO7239181 (67.3 Ci/mmol; Roche) binding to membranes from HEK293F cells (ThermoFisher R79007) expressing human (transiently transfected) receptors of composition […], α2β2γ1, α1β2γ1.
Harvested pellets from HEK293F cells expressing the different GABAA receptor subtypes were resuspended in Mannitol Buffer pH 7.2-7.4 (Mannitol 0.29M, Triethylamine 10 mM, Acetic acid 10 mM, EDTA 1 mM plus protease inhibitors (20 tablets Complete, Roche Diagnostics Cat. No. 05 056 489 001 per liter)), washed two times and then resuspended at 1:10 to 1:15 dilution in the same buffer. Cell disruption was performed by stirring the suspension in a Parr vessel #4637 at 435 psi for 15 minutes, and then the suspensions were centrifuged at 1000×g for 15 minutes at 4° C. (Beckman Avanti J-HC; rotor JS-4.2). The supernatant (S1) was transferred in a 21 Schott flask and the pellet (P1) was resuspended with Mannitol Buffer up to 175 ml. The resuspended pellet was transferred into a 250 ml Corning centrifugal beaker and centrifuged at 1500×g for 10 minutes at 4° C. (Beckman Avanti J-HC; rotor JS-4.2). The supernatant (S1) was then transferred in the 21 Schott flask and the pellet was discarded. The supernatants (S1) were centrifuged in 500 ml Beckman polypropylene centrifugal beaker at 15′000×g for 30 minutes at 4° C. (Beckman Avanti J-20 XP; rotor JLA-10.500). The pellet (P2) was resuspended with Mannitol Buffer 1:1 and frozen at −80° C. The supernatant (S2) was centrifuged in 100 ml Beckman polypropylene centrifugal tubes at 48000×g for 50 minutes at 4° C. (Beckman Avanti J-20 XP; rotor JA-18). The supernatant (S3) was discarded and the pellet (P3) was resuspended with 1:1 Mannitol Buffer. The P2 and P3 protein concentration was determined with the BIORAD Standard assay method with bovine serum albumin as standard and measured on the NANO-Drop 1000. The membrane suspension was aliquots (500 μl per tube) and stored at −80° C. until required. Membrane homogenates were resuspended and polytronised (Polytron PT1200E Kinematica AG) in Potassium Phosphate 10 mM, KCl 100 mM binding buffer at pH 7.4 to a final assay concentration determined with a previous experiment.
Assays were incubated to equilibrium for 1 hour at 4° C. and then, membranes were filtered onto unifilter (96-well white microplate with bonded GF/C filters preincubated 20-50 minutes in 0.3% Polyethylenimine) with a Filtermate 196 harvester (Packard BioScience) and washed 4 times with cold Potassium Phosphate 10 mM pH 7.4, KCl 100 mM binding buffer. After drying, filter-retained radioactivity was detected by liquid scintillation counting. Ki values were calculated using Excel-Fit (Microsoft) and are the means of two determinations.
Work on `Cc1nnc2n1-c1ccc(Br)c(Cl)c1C(c1c(F)cccc1F)=NC2` [Example 1, 8-bromo-7-chloro-6-(2,6-difluorophenyl)-1-methyl-4H-[1,2,4]triazolo[4,3-a][1,4]benzodiazepine] yielded a Ki of 0.008 µM. In the case of `Fc1ccccc1C1=NCc2nnc(C3CC3)n2-c2ccc(Br)c(Cl)c21` [Example 2, 8-bromo-7-chloro-1-cyclopropyl-6-(2-fluorophenyl)-4H-[1,2,4]triazolo[4,3-a][1,4]benzodiazepine], the Ki is reported as 0.0479 µM. Molecule `Fc1ccccc1C1=NCc2nnc(-c3cccnn3)n2-c2ccc(Br)c(Cl)c21` [Example 3, 8-bromo-7-chloro-6-(2-fluorophenyl)-1-pyridazin-3-yl-4H-[1,2,4]triazolo[4,3-a][1,4]benzodiazepine] has a Ki of 0.0088 µM. Molecule `Cc1nnc2n1-c1ccc(Cl)c(Cl)c1C(c1ccccc1F)=NC2` [Example 4, 7,8-dichloro-6-(2-fluorophenyl)-1-methyl-4H-[1,2,4]triazolo[4,3-a][1,4]benzodiazepine] has a Ki of 0.0658 µM. With `Cc1nnc2n1-c1ccc(Cl)c(Cl)c1C(c1c(F)cccc1F)=NC2` [Example 5, 7,8-dichloro-6-(2,6-difluorophenyl)-1-methyl-4H-[1,2,4]triazolo[4,3-a][1,4]benzodiazepine] the Ki was 0.0066 µM. Molecule `Cc1nnc2n1-c1ccc(C3CC3)c(Cl)c1C(c1c(F)cccc1F)=NC2` [Example 6, 7-chloro-8-cyclopropyl-6-(2,6-difluorophenyl)-1-methyl-4H-[1,2,4]triazolo[4,3-a][1,4]benzodiazepine] has a Ki of 0.0933 µM. In the case of `Fc1cccc(F)c1C1=NCc2nncn2-c2ccc(Br)c(Cl)c21` [Example 7, 8-bromo-7-chloro-6-(2,6-difluorophenyl)-4H-[1,2,4]triazolo[4,3-a][1,4]benzodiazepine], the Ki is reported as 0.0085 µM. For `Fc1ccccc1C1=NCc2nncn2-c2ccc(Br)c(Cl)c21` [Example 8, 8-bromo-7-chloro-6-(2-fluorophenyl)-4H-[1,2,4]triazolo[4,3-a][1,4]benzodiazepine], the Ki was 0.0476 µM. For `O=c1[nH]nc2n1-c1ccc(Cl)c(Cl)c1C(c1c(F)cccc1F)=NC2` [Example 9, 7,8-dichloro-6-(2,6-difluorophenyl)-2,4-dihydro-[1,2,4]triazolo[4,3-a][1,4]benzodiazepin-1-one], the Ki was 0.008 µM. In the case of `Fc1ccccc1C1=NCc2nnc(-c3cccnn3)n2-c2ccc(Cl)c(Cl)c21` [Example 10, 7,8-dichloro-6-(2-fluorophenyl)-1-pyridazin-3-yl-4H-[1,2,4]triazolo[4,3-a][1,4]benzodiazepine], the Ki is reported as 0.0095 µM. Work on `Fc1cccc(F)c1C1=NCc2nnc(C3CCOCC3)n2-c2ccc(Cl)c(Cl)c21` [Example 11, 7,8-dichloro-6-(2,6-difluorophenyl)-1-tetrahydropyran-4-yl-4H-[1,2,4]triazolo[4,3-a][1,4]benzodiazepine] yielded a Ki of 0.0491 µM. For `Fc1cccc(F)c1C1=NCc2nnc(-c3ccncn3)n2-c2ccc(Cl)c(Cl)c21` [Example 12, 7,8-dichloro-6-(2,6-difluorophenyl)-1-pyrimidin-4-yl-4H-[1,2,4]triazolo[4,3-a][1,4]benzodiazepine], the Ki was 0.0104 µM. With `O=c1[nH]nc2n1-c1ccc(Br)c(Cl)c1C(c1c(F)cccc1F)=NC2` [Example 13, 8-bromo-7-chloro-6-(2,6-difluorophenyl)-2,4-dihydro-[1,2,4]triazolo[4,3-a][1,4]benzodiazepin-1-one] the Ki was 0.0062 µM. For `Fc1cccc(F)c1C1=NCc2nnc(-c3cccnn3)n2-c2ccc(Cl)c(Cl)c21` [Example 14, 7,8-dichloro-6-(2,6-difluorophenyl)-1-pyridazin-3-yl-4H-[1,2,4]triazolo[4,3-a][1,4]benzodiazepine], the Ki was 0.0034 µM. `Fc1cccc(F)c1C1=NCc2nncn2-c2ccc(Cl)c(Cl)c21` [Example 15, 7,8-dichloro-6-(2,6-difluorophenyl)-4H-[1,2,4]triazolo[4,3-a][1,4]benzodiazepine] was tested, and the Ki was 0.0087 µM. Work on `Cc1ccc2c(c1Cl)C(c1c(F)cccc1F)=NCc1n[nH]c(=O)n1-2` [Example 16, 7-chloro-6-(2,6-difluorophenyl)-8-methyl-2,4-dihydro-[1,2,4]triazolo[4,3-a][1,4]benzodiazepin-1-one] yielded a Ki of 0.0265 µM. `Cc1ccc2c(c1Cl)C(c1c(F)cccc1F)=NCc1nncn1-2` [Example 17, 7-chloro-6-(2,6-difluorophenyl)-8-methyl-4H-[1,2,4]triazolo[4,3-a][1,4]benzodiazepine] was tested, and the Ki was 0.0198 µM. Molecule `Fc1ccccc1C1=NCc2nnc(-c3ccncn3)n2-c2ccc(Cl)c(Cl)c21` [Example 18, 7,8-dichloro-6-(2-fluorophenyl)-1-pyrimidin-4-yl-4H-[1,2,4]triazolo[4,3-a][1,4]benzodiazepine] has a Ki of 0.0216 µM. `COCCc1nnc2n1-c1ccc(Cl)c(Cl)c1C(c1c(F)cccc1F)=NC2` [Example 19, 7,8-dichloro-6-(2,6-difluorophenyl)-1-(2-methoxyethyl)-4H-[1,2,4]triazolo[4,3-a][1,4]benzodiazepine] showed a Ki of 0.026 µM. With `Cc1ccc2c(c1Cl)C(c1c(F)cccc1F)=NCc1nnc(C)n1-2` [Example 20, 7-chloro-6-(2,6-difluorophenyl)-1,8-dimethyl-4H-[1,2,4]triazolo[4,3-a][1,4]benzodiazepine] the Ki was 0.0238 µM. `CC(F)(F)c1ccc2c(c1Cl)C(c1c(F)cccc1F)=NCc1nncn1-2` [Example 21, 7-chloro-8-(1,1-difluoroethyl)-6-(2,6-difluorophenyl)-4H-[1,2,4]triazolo[4,3-a][1,4]benzodiazepine] showed a Ki of 0.052 µM. Work on `Cc1nnc2n1-c1ccc(C(C)(F)F)c(Cl)c1C(c1c(F)cccc1F)=NC2` [Example 22, 7-chloro-8-(1,1-difluoroethyl)-6-(2,6-difluorophenyl)-1-methyl-4H-[1,2,4]triazolo[4,3-a][1,4]benzodiazepine] yielded a Ki of 0.0374 µM. For `Fc1cccc(F)c1C1=NCc2nncn2-c2ccc(C(F)F)c(Cl)c21` [Example 23, 7-chloro-8-(difluoromethyl)-6-(2,6-difluorophenyl)-4H-[1,2,4]triazolo[4,3-a][1,4]benzodiazepine], the Ki was 0.0545 µM.
